Experimental data taken from EP4790063A1, “PEPTIDE HAVING ACTIVITY FOR […] OF MARINE FOULING” (National University Corporation Hokkaido University, priority 2023, dated 2025).
Read-outs that look alike come from different tables or passages of the source. Non-standard residues stand in square brackets, D forms with d. Residues, ends and D or L forms follow the SMILES beside them. ξ: configuration not given here. *: point of attachment. ξβ3hL = CC(C)CC(N)CC(=O)O; Boc = CC(C)(C)OC(=O)*; OBn = c1ccc(CO*)cc1; GABA = NCCCC(=O)O; βAla = NCCC(=O)O

Assays:
[1] = test system: cypris larvae of Striped Barnacle; test: Evaluation of antifouling activities and toxicity against the cypris larvae of Striped Barnacle (24-well plate, adhesion and mortality after 48 h); format: in vivo, Amphibalanus amphitrite
Method: (§1) After solutions of about 2 mL of the test compounds (tripeptides 2 to 10 and dipeptide 11) in ethanol were dispensed into each well of the 24-well polystyrene multi-well plate (3.2 mL/well, well diameter 15.5 mm, well height 17.6 mm, manufactured by Corning), the multi-well plate was air-dried to evaporate the ethanol.
(§2) The test compounds were aliquoted to achieve final concentrations of 0.03, 0.1, 0.3, 1, 3, and 10 µg/mL.
(§3) Subsequently, six individuals of the cypris larvae of Striped Barnacle (hereinafter simply referred to as "barnacle larvae") were transplanted into each well along with 2 mL of pre-filtered natural seawater. The multi-well plate was left standing in an incubator at 25°C, and the barnacle larvae were allowed to grow for two days at 25°C.
In the above procedure, a test for the control group was conducted by dispensing an ethanol solution without any test compound. The natural seawater used in the above test was prepared by diluting the natural seawater collected from the coastal area near Onjuku, Chiba Prefecture (salt concentration: 36 g/kg) with distilled water to adjust a salt concentration of 32 g/kg.
In the test group, the control group, and the comparison group, the tests were conducted in four times (four wells) for one concentration of each test compounds.
Forty-eight hours after the test started, the number of adhered individuals and the number of dead individuals of the barnacle larvae in each well were counted under a stereomicroscope. The adhesion rate (%) and mortality rate (%) of the barnacle larvae in each well were calculated, respectively. […] Similarly, for each test compound, a dose-mortality response curve was created to determine the half-maximal lethal concentration (48h LC50) that causes 50% mortality in the barnacle larvae. As a reference, the value of Boc-3 obtained from non-Patent literature 8 is also described.
In particular, the lower the settlement rate, the stronger the antifouling effect.

[2] = test system: juvenile shellfish of Mediterranean mussel; test: Evaluation of the antifouling activity and toxicity against the juvenile shellfish of Mediterranean mussel (coated glass beaker, 3 days); format: in vivo, Mytilus galloprovincialis; conditions: for bottom surface-adhered individuals % / bottom surface-crawling individuals % / overturned individuals or closed shell individuals (unadhered) % / wall surface-adhered individuals % / number of byssal threads on the bottom surface / bottom surface-adhered individuals No. / bottom surface-crawling individuals No. / overturned individuals or closed shell individuals (unadhered) No. / wall surface-adhered individuals No.: three days; for bottom surface-adhered individuals No. / bottom surface-crawling individuals No. / overturned individuals or closed shell individuals (unadhered) No. / wall surface-adhered individuals No.: twelve individuals; for antifouling effect (overall determination in words): juvenile Mediterranean mussel, 3.0 µg/mL and 10 µg/mL
Method: The sample was dissolved in ethanol to adjust to a concentration of 1 mg/mL. Thirty and 100 µL (30 and 100 µg) of the sample solutions were mixed with the solvent, and the mixtures were brought to a total volume of 500 µL. These mixtures were spread on the bottom surface of the glass beaker of the test container, and the solvent was volatilized by shaking them overnight. As a result, the samples to be evaluated were coated only on the bottom surface of the glass beaker.

[3] = test system: cypris larvae of Striped Barnacle; conditions: Reference value, see Table 1 in non-Patent literature 8; cited from earlier work
[4] = test system: juvenile shellfish of Mediterranean mussel
Method: The sample was dissolved in ethanol to adjust to a concentration of 1 mg/mL. Thirty and 100 µL (30 and 100 µg) of the sample solutions were mixed with the solvent, and the mixtures were brought to a total volume of 500 µL. These mixtures were spread on the bottom surface of the glass beaker of the test container, and the solvent was volatilized by shaking them overnight.
A volume of 10 mL of the test seawater was added to the glass beakers of the test containers. The tests were initiated by introducing twelve test individuals into the test seawater in each beaker. The tests ended after three days, and the observation was conducted.
In Table 2, the terms "bottom surface-adhered individuals" and "wall surface-adhered individuals" refer to individuals that are adhered to the bottom surface and wall surface of the beaker, respectively; the term "bottom surface-crawling individuals" refers to individuals that move along the bottom surface without adhering; the term "overturned individuals or closed shell individuals (unadhered)" refers to individuals that are either overturned or in a closed shell without adhering to the bottom surface; and the term "number of byssal threads on the bottom surface" refers to the number of foot threads that are fixed to the bottom surface. In particular, the greater the reduction in the number of byssal threads, the stronger the effect of adhesion prevention.

[5] = test system: cypris larvae of Striped Barnacle
Method: as §1, §2, §3
In the above procedure, a test for the control group was conducted by dispensing an ethanol solution without any test compound. […]
Forty-eight hours after the test started, the number of adhered individuals and the number of dead individuals of the barnacle larvae in each well were counted under a stereomicroscope. The adhesion rate (%) and mortality rate (%) of the barnacle larvae in each well were calculated, respectively. […]

[6] = Table 4 summary of results from Test Examples 1 to 3 (rounded)
[7] = Test Example 1, concentration causing 50% mortality in barnacle larvae, 48 h, 25°C, tested 0.03-10 µg/mL
[8] = Test Example 1, concentration that prevents adhesion of barnacle larvae by 50%, 48 h, 25°C, tested 0.03-10 µg/mL
[9] = 3 µg/mL (30 µg), twelve individuals, three days
[10] = Test Example 3, same manner as Test Example 1

CCOC(=O)CCCNC(=O)[C@@H]1CCCN1C(=O)[C@H](Cc1ccccc1)NC(=O)OC(C)(C)C [tripeptide 5] (Boc-Phe-Pro-[GABA]-OEt)
Antifouling activity 48h EC50 [1, 6]: >10 µg/mL
Toxicity 48h LC50 [1, 7]: >10 µg/mL
Antifouling activity 48h EC50 [1, 8]: >10 µg/mL

CC(C)CC(CC(=O)OCc1ccccc1)NC(=O)[C@@H]1CCCN1C(=O)[C@H](Cc1ccccc1)NC(=O)OC(C)(C)C (stereo partly drawn) [tripeptide 8] (Boc-Phe-Pro-[ξβ3hL]-OBn)
Antifouling activity 48h EC50 [1, 6]: 1.1 µg/mL
Toxicity 48h LC50 [1, 7]: >10 µg/mL
Antifouling activity 48h EC50 [1, 8]: 1.13 µg/mL
antifouling activity (in words) ([1]; cypris larvae of Striped Barnacle, within the tested concentration range): effective
bottom surface-adhered individuals % ([2]; 3 µg/mL (30 µg)): 16.7%
bottom surface-crawling individuals % ([2]; 3 µg/mL (30 µg)): 0.0%
overturned individuals or closed shell individuals (unadhered) % ([2]; 3 µg/mL (30 µg)): 58.3%
wall surface-adhered individuals % ([2]; 3 µg/mL (30 µg)): 25.0%
number of byssal threads on the bottom surface ([2]; 3 µg/mL (30 µg), control group 118): 25
bottom surface-adhered individuals No. ([2]; 3 µg/mL (30 µg)): 2
bottom surface-crawling individuals No. ([2]; 3 µg/mL (30 µg)): 0
overturned individuals or closed shell individuals (unadhered) No. ([2]; 3 µg/mL (30 µg)): 7
wall surface-adhered individuals No. ([2]; 3 µg/mL (30 µg)): 3
bottom surface-adhered individuals % ([2]; 10 µg/mL (100 µg)): 16.7%
bottom surface-crawling individuals % ([2]; 10 µg/mL (100 µg)): 0.0%
number of byssal threads on the bottom surface ([2]; 10 µg/mL (100 µg)): 12
overturned individuals or closed shell individuals (unadhered) % ([2]; 10 µg/mL (100 µg)): 83.3%
wall surface-adhered individuals % ([2]; 10 µg/mL (100 µg)): 0.0%
bottom surface-adhered individuals No. ([2]; 10 µg/mL (100 µg)): 2
bottom surface-crawling individuals No. ([2]; 10 µg/mL (100 µg)): 0
overturned individuals or closed shell individuals (unadhered) No. ([2]; 10 µg/mL (100 µg)): 10
wall surface-adhered individuals No. ([2]; 10 µg/mL (100 µg)): 0
antifouling effect (overall determination in words) [2]: exhibit an antifouling effect
antifouling effect (overall determination in words) ([2]; listed as compound 8): effective

CC(C)C(NC(=O)[C@@H]1CCCN1C(=O)OC(C)(C)C)C(C)C(=O)OCc1ccccc1 (some centres unmarked) [dipeptide 11]
Antifouling activity 48h EC50 [1, 6]: 2.4 µg/mL
Toxicity 48h LC50 [1, 7]: >10 µg/mL
Antifouling activity 48h EC50 [1, 8]: 2.39 µg/mL

CCOC(=O)[C@H](CC(C)C)NC(=O)[C@@H]1CCCN1C(=O)[C@H](Cc1ccccc1)NC(=O)OC(C)(C)C [tripeptide 3] (Boc-Phe-Pro-Leu-OEt)
Antifouling activity 48h EC50 [1, 6]: >10 µg/mL

CCOC(=O)CCNC(=O)[C@@H]1CCCN1C(=O)[C@H](Cc1ccccc1)NC(=O)OC(C)(C)C [tripeptide 4] (Boc-Phe-Pro-[βAla]-OEt)
Antifouling activity 48h EC50 [1, 6]: >10 µg/mL
Toxicity 48h LC50 [1, 7]: >10 µg/mL
Antifouling activity 48h EC50 [1, 8]: >10 µg/mL

CC(C)[C@@H](NC(=O)[C@@H]1CCCN1C(=O)[C@@H](NC(=O)OC(C)(C)C)[C@H](C)Cc1ccccc1)[C@@H](C)C(=O)OCc1ccccc1 [Boc-3]
Toxicity 48h LC50 [3]: >10 µg/mL

O=S(=O)([O-])[O-].[Cu+2] [Copper sulfate]
bottom surface-adhered individuals % ([4]; 3 µg/mL (30 µg), three days): 0.0%
bottom surface-crawling individuals % ([4]; 3 µg/mL (30 µg), three days): 0.0%
overturned individuals or closed shell individuals (unadhered) % ([4]; 3 µg/mL (30 µg), three days): 100.0%
wall surface-adhered individuals % ([4]; 3 µg/mL (30 µg), three days): 0.0%
number of byssal threads on the bottom surface ([4]; 3 µg/mL (30 µg), three days, control group 118): 2
bottom surface-adhered individuals No. [4, 9]: 0
bottom surface-crawling individuals No. [4, 9]: 0
overturned individuals or closed shell individuals (unadhered) No. [4, 9]: 12
wall surface-adhered individuals No. [4, 9]: 0
antifouling effect (overall determination in words) ([4]; juvenile Mediterranean mussel, 3.0 µg/mL and 10 µg/mL): high
Antifouling activity 48h EC50 [5, 8]: 0.41 µg/mL
Antifouling activity 48h EC50 [5, 10]: 0.3 µg/mL

CC(C)(C)OC(=O)N1CCC[C@H]1C(=O)N[C@@H](CC(=O)OCc1ccccc1)c1ccccc1 [dipeptide 14]
Antifouling activity 48h EC50 [1, 6]: 3.2 µg/mL
Antifouling activity 48h EC50 [1, 10]: 3.18 µg/mL
Toxicity 48h LC50 [1, 10]: >10 µg/mL
